How the values were obtained:
Format in all cases: cell-based, human
[1] = system: HL-60(T13); assay: NCI 60 panel five-dose growth inhibition, Leukemia; details: for GI50: Homo sapiens
[2] = system: K-562; assay: NCI 60 panel five-dose growth inhibition, Leukemia; details: K-562, Leukemia; for GI50: Homo sapiens, K562
[3] = system: MOLT-4; assay: NCI 60 panel five-dose growth inhibition, Leukemia; details: MOLT-4, Leukemia; for GI50: Homo sapiens
[4] = system: RPMI-8226; assay: NCI 60 panel five-dose growth inhibition, Leukemia; details: RPMI-8226, Leukemia; for GI50: Homo sapiens
[5] = system: SR; assay: NCI 60 panel five-dose growth inhibition, Leukemia; details: for GI50: Homo sapiens
[6] = system: A549/ATCC; assay: NCI 60 panel five-dose growth inhibition, Non-Small Cell Lung Cancer; details: for GI50: Homo sapiens
[7] = system: HOP-62; assay: as above; details: HOP-62, Non-Small Cell Lung Cancer; for GI50: Homo sapiens
[8] = system: NCI-H460; assay: as above; details: for GI50: Homo sapiens
[9] = system: COLO 205; assay: NCI 60 panel five-dose growth inhibition, Colon Cancer; details: COLO 205, Colon Cancer; for GI50: Homo sapiens
[10] = system: HCC-2998; assay: as above; details: HCC-2998, Colon Cancer; for GI50: Homo sapiens
[11] = system: HCT-116; assay: as above; details: HCT-116, Colon Cancer; for GI50: Homo sapiens
[12] = system: 1-ICT-15; assay: as above; details: 1-ICT-15, Colon Cancer; for GI50: Homo sapiens
[13] = system: KM12; assay: as above; details: for GI50: Homo sapiens
[14] = system: SW-620; assay: as above; details: SW-620, Colon Cancer; for GI50: Homo sapiens
[15] = system: SF-268; assay: NCI 60 panel five-dose growth inhibition, CNS Cancer; details: SF-268, CNS Cancer; for GI50: Homo sapiens
[16] = system: SF-539; assay: as above; details: SF-539, CNS Cancer; for GI50: Homo sapiens
[17] = system: SNB-75; assay: as above; details: SNB-75, CNS Cancer; for GI50: Homo sapiens
[18] = system: U251; assay: as above; details: for GI50: Homo sapiens, U-251
[19] = system: LOX IMVI; assay: NCI 60 panel five-dose growth inhibition, Melanoma; details: for GI50: Homo sapiens
[20] = system: M14; assay: NCI 60 panel five-dose growth inhibition, Melanoma; details: for GI50: Homo sapiens
[21] = system: MDA-MB-435; assay: NCI 60 panel five-dose growth inhibition, Melanoma; details: for GI50: Homo sapiens
[22] = system: SK-MEL-2; assay: NCI 60 panel five-dose growth inhibition, Melanoma; details: SK-MEL-2, Melanoma; for GI50: Homo sapiens
[23] = system: SK-MEL-28; assay: NCI 60 panel five-dose growth inhibition, Melanoma; details: SK-MEL-28, Melanoma
[24] = system: 5K-MEL-5; assay: NCI 60 panel five-dose growth inhibition, Melanoma; details: 5K-MEL-5, Melanoma; for GI50: Homo sapiens
[25] = system: UACC-62; assay: NCI 60 panel five-dose growth inhibition, Melanoma; details: for GI50: Homo sapiens, UACC-62, UACC-62, Melanoma; for TGI: UACC-62, Melanoma
[26] = system: IGROV1; assay: NCI 60 panel five-dose growth inhibition, Ovarian Cancer; details: for GI50: Homo sapiens, IGROV-1
[27] = system: NCI/ADR-RES; assay: as above; details: for GI50: Homo sapiens
[28] = system: SK-OV-3; assay: as above; details: SK-OV-3, Ovarian Cancer; for GI50: Homo sapiens
[29] = system: ACHN; assay: NCI 60 panel five-dose growth inhibition, Renal Cancer; details: for GI50: Homo sapiens
[30] = system: CAKI-1; assay: as above; details: CAKI-1, Renal Cancer; for GI50: Homo sapiens
[31] = system: U0-31; assay: as above; details: U0-31, Renal Cancer; for GI50: Homo sapiens
[32] = system: PC-3; assay: NCI 60 panel five-dose growth inhibition, Prostate Cancer; details: PC-3, Prostate Cancer; for GI50: Homo sapiens
[33] = system: DU-145; assay: as above; details: DU-145, Prostate Cancer; for GI50: Homo sapiens
[34] = system: MCF7; assay: NCI 60 panel five-dose growth inhibition, Breast Cancer; details: for GI50: Homo sapiens
[35] = system: MDA-MB-231/ATCC; assay: as above; details: for GI50: Homo sapiens
[36] = system: HS 5781; assay: as above; details: HS 5781, Breast Cancer
[37] = system: MDA-MB-468; assay: as above; details: MDA-MB-468, Breast Cancer; for GI50: Homo sapiens

With `COc1cc(-c2n[nH]nc2-c2cc(OC)c(OC)c(OC)c2)cc(OC)c1OC` [Example 3, 4,5-bis(3,4,5-trimethoxyphenyl)-2H-1,2,3-triazole] the TGI [1] was 5740 nM, the GI50 [1] was 30 nM and the GI50 [2] was 25.7 nM. For the same molecule, the TGI [2] was over 100000 nM, the GI50 [3] was 68.2 nM and the TGI [3] was over 100000 nM. The GI50 [4] was 36.5 nM, the TGI [4] was 87600 nM and the TGI [5] was over 100000 nM. For the same molecule, the GI50 [5] was 21.1 nM, the TGI [6] was over 100000 nM and the GI50 [6] was 54.1 nM. For the same molecule, the TGI [7] was over 100000 nM, the GI50 [7] was 46.7 nM and the TGI [8] was over 100000 nM. For the same molecule, the GI50 [8] was 38.1 nM, the TGI [9] was 1160 nM and the GI50 [9] was 228 nM. It also gave a TGI [10] of over 100000 nM, a GI50 [10] of 230 nM and a GI50 [11] of 40.2 nM. The TGI [12] was over 100000 nM, the GI50 [12] was 37.3 nM and the TGI [13] was over 100000 nM. For the same molecule, the GI50 [13] was 35.3 nM, the GI50 [14] was 40.6 nM and the TGI [14] was over 100000 nM. For the same molecule, the GI50 [15] was 503 nM, the TGI [15] was over 100000 nM and the GI50 [16] was 20 nM. For the same molecule, the TGI [16] was 50 nM, the GI50 [17] was 15.7 nM and the TGI [18] was 46900 nM. The GI50 [18] was 37.1 nM, the TGI [19] was over 100000 nM and the GI50 [19] was 65.2 nM. For the same molecule, the GI50 [20] was 21.5 nM, the GI50 ([21]; MDA-MB-435, Melanoma) was under 10 nM and the GI50 [22] was 26.9 nM. The TGI [22] was 4240 nM, the GI50 ([23]; Homo sapiens) was over 1000 nM and the TGI [23] was 6330 nM. For the same molecule, the TGI [24] was 350 nM, the GI50 [24] was 12.6 nM and the GI50 [25] was 157 nM. For the same molecule, the TGI [25] was 4610 nM, the TGI [26] was over 100000 nM and the GI50 [26] was 64.8 nM. For the same molecule, the TGI [27] was 66100 nM, the GI50 [27] was 23.1 nM and the GI50 [28] was 75 nM. It also gave a TGI [28] of 97700 nM, a TGI [29] of over 100000 nM and a GI50 [29] of 81.3 nM. It also gave a TGI [30] of over 100000 nM, a GI50 [30] of 42.6 nM and a GI50 [31] of 92.3 nM. The TGI [31] was over 100000 nM, the GI50 [32] was 45.8 nM and the TGI [32] was over 100000 nM. It also gave a GI50 [33] of 26.6 nM, a TGI [34] of over 100000 nM and a GI50 [34] of 26.9 nM. For the same molecule, the TGI [35] was over 100000 nM, the GI50 [35] was 94.7 nM and the TGI [36] was over 100000 nM. For the same molecule, the GI50 [37] was 34.6 nM and the TGI [37] was 26000 nM.

With `COc1cc(-c2n[nH]nc2-c2ccc3ccccc3n2)cc(OC)c1OC` [Example 4, 2-(5-(3,4,5-trimethoxyphenyl)-2H-1,2,3-triazol-4-yl)quinoline] the GI50 [1] was 22.7 nM, the GI50 [2] was under 10 nM and the TGI [2] was over 100000 nM. For the same molecule, the GI50 [3] was 48.2 nM, the TGI [3] was 20000 nM and the GI50 [4] was 36.8 nM. It also gave a TGI [4] of 21100 nM, a TGI [5] of 16900 nM and a GI50 [5] of under 10 nM. For the same molecule, the TGI [6] was over 100000 nM, the GI50 [6] was 37.4 nM and the TGI [7] was over 100000 nM. For the same molecule, the GI50 [7] was 25 nM, the TGI [8] was over 100000 nM and the GI50 [8] was 34.2 nM. For the same molecule, the TGI [9] was 640 nM, the GI50 [9] was 149 nM and the TGI [10] was 11400 nM. It also gave a GI50 [10] of 45.9 nM, a TGI [11] of 1470 nM and a GI50 [11] of under 10 nM. The TGI [12] was 5130 nM, the GI50 [12] was under 10 nM and the TGI [13] was 23800 nM. It also gave a GI50 [13] of 29.8 nM, a GI50 [14] of 29.5 nM and a TGI [14] of over 100000 nM. The GI50 [15] was 177 nM, the TGI [15] was over 100000 nM and the GI50 [16] was 13.8 nM. It also gave a TGI [16] of 40 nM, a GI50 [17] of 14.2 nM and a TGI [17] of over 100000 nM. It also gave a TGI [18] of over 100000 nM, a GI50 [18] of 37.9 nM and a TGI [19] of over 100000 nM. For the same molecule, the GI50 [19] was 75.5 nM, the TGI [20] was over 100000 nM and the GI50 [20] was under 10 nM. For the same molecule, the GI50 ([21]; MDA-MB-435, Melanoma) was under 10 nM, the TGI ([21]; MDA-MB-435, Melanoma) was 10 nM and the “sensitivity to the growth inhibitory effects” value ([21]; MDA-MB-435, in words) was “sensitive”. It also gave a GI50 [22] of 55.5 nM, a TGI [22] of over 100000 nM and a TGI [24] of 320 nM. For the same molecule, the GI50 [24] was 26.7 nM, the GI50 [25] was under 10 nM and the TGI [25] was over 100000 nM. For the same molecule, the TGI [26] was over 100000 nM, the GI50 [26] was 50.9 nM and the TGI [27] was 80 nM. It also gave a GI50 [27] of under 10 nM, a GI50 [28] of 45.8 nM and a TGI [28] of over 100000 nM. The TGI [29] was over 100000 nM, the GI50 [29] was 145 nM and the TGI [30] was over 100000 nM. For the same molecule, the GI50 [30] was 50.2 nM, the GI50 [31] was 20 nM and the TGI [31] was over 100000 nM. It also gave a GI50 [32] of 41.5 nM, a TGI [32] of over 100000 nM and a TGI [33] of over 100000 nM. It also gave a GI50 [33] of 44.8 nM, a TGI [34] of over 100000 nM and a GI50 [34] of 24.5 nM. It also gave a TGI [35] of over 100000 nM, a GI50 [35] of 46 nM and a TGI [36] of over 100000 nM. The GI50 ([36]; Homo sapiens) was 40.9 nM, the GI50 [37] was 23.3 nM and the TGI [37] was 80 nM.
